Test results as given in US20120294808A1, “Fluorescent Analogs of Neurotransmitters, Compositions Containing the Same and Methods of Using the Same” (UNIVERSITY OF MIAMI, priority 2009, published 2012).
“And” between values parts separate entries of the source, which are not always exact repeats. Equal entries are not always repeated. “Also recorded” adds a separate entry of the source. Each block holds one molecule with its values, some of them ahead of it.

Key:
[1] = system: Mixed cell cultures of neurons and astroglia isolated from the brain stems of E14 chick embryos; assay: Microwell plate reader cellular uptake assay, with and without clomipramine (SRI) pretreatment; format: cell-based; conditions: for effect of Clomipramine pretreatment on uptake: pre-treatment with Clomipramine, a serotonin reuptake inhibitor; for emission response (cellular uptake): λex=355 nm, λem=444 nm, versus controls A and B
Text: Mixed cell cultures of neurons and astroglia isolated from the brain stems of E14 chick embryos were exposed to solutions of 1-4. Serotonergic cells are clustered in the raphe nucleus (RN) located along the midline of the brain stem; they project into other regions of the brain including the hypothalamus, the olfactory bulb, cortex and cerebellum. […] The inherent fluorescence of the carbostyril core enabled direct detection of their cellular uptake utilizing a microwell plate reader (λex=355 nm, λem=444 nm).
It was believed that several modes of interaction are possible between the fluorescent probes and the cultured cells including specific interactions such as active transport via neurotransmitter transporters, or binding to neurotransmitter receptors, as well as non-specific interactions such as insertion into the cell membrane.

[2] = system: Neurons and astroglia isolated from E14 chick brainstems; assay: Live confocal imaging of cultured cells exposed to probe (405 nm excitation); format: cell-based
Description: In other words, whether the probe localized to the cell membrane, implying binding to transporters or receptors, or whether the probe was internalized, implying active transport into the cytosol. Neurons and astroglia isolated from E14 chick brainstems were grown on poly-L-lysine and laminin treated coverslips affixed to 35 mm culture dishes enabling live imaging of the cells in culture media. […] Cells were exposed to the probe solution for one minute, the media was then changed and additional images were captured. […] During the course of the imaging experiments, some photobleaching was observed.

[3] = Optical properties (absorption and emission spectra) of carbostyril probes 1-4; format: physicochemical; conditions: for small additional emission peak: acidic solutions, protonated form
Text: The optical properties of 1-4 were investigated in order to determine their suitability as fluorescent probes. Absorption spectra were obtained in neutral, acidic and basic solutions. […] Addition of acetic acid effected a hypsochromic shift (λmax=335 nm); the addition of triethylamine results in pronounced bathchromic (λmax=370 nm) and hyperchromic shifts. The linear combination of the absorption spectra with excess acid and excess base nearly perfectly overlaps with the spectrum obtained at pH 7.2 (FIG. 1). Therefore, it was determined that at near neutral pH (between approximately 6.5-7.5pH), both protonated and unprotonated species exist at roughly equal concentrations.
Thus, it was determined that in neutral and basic solutions, 1-4 emit from a deprotonated excited state species. Emission in acidic solutions is dominated by the deprotonated species as well. In the case of 3 and 4 a small peak at 380 nm was observed, which is likely due to photoemission from the protonated form of these molecules. While 5HT itself is fluorescent, single photon excitation of 5HT requires specialized optics and a UV excitation source (λmax,abs=277 nm). Furthermore, the autofluorescence of biological samples is also quite high in the UV region. The longer wavelength absorption of 1-4 allows selective photoexcitation of these fluorophores in the presence of aromatic amino acid residues and nucleobases.

[4] = Solubility of probes 1-4 in methanol and PBS; format: physicochemical; conditions: phosphate-buffered saline (PBS), aqueous buffer; read-out: concentration at which soluble in PBS
Text: The synthesis of analogs 2-4 followed a similar route: reaction of 5 with chloroethylamine followed by deprotection of the 6-hydroxy group produced 2; 3 and 4 resulted from reaction of 5 with bromoethanol and bromopropylbenzene respectively. In all cases the N-linked isomer was isolated.

[5] = system: dissociated e19 chick brain cells; assay: Example 4 uptake in brain cells (microwell plate assay and/or live cell confocal imaging, 405 nm laser); format: cell-based; conditions: 10 μM to 100 μM; absence of monoamine reuptake inhibitors
Description: Stock solutions of the compounds shown below (UM001-UM005, 8, 9 & 12A from Example 2) were used to produce compositions with final concentrations ranging from 10 μM to 100 μM. The compositions were then contacted with dissociated e19 chick brain cells, irradiated with a 405 nm laser, and imaged using confocal microscopy.

[6] = system: dissociated e19 chick brain cells; assay: 96-microwell plate uptake screen, with and without indatraline pretreatment; format: cell-based; conditions: pretreated with indatraline, a monoamine reuptake inhibitor
Description: The native fluorescence of the emitters enables direct detection of their uptake in dissociated e19 chick brain cells in a convenient 96-microwell plate format. This method enables screening for activity against multiple cell types and transporters including MATs and OCTs without the use of radioactive compounds. Solutions of 11A-18D were added to cell culture media to produce an emitter concentration of 100 μM. The incubation time used was 10 min. The fluorphore solution was removed, fresh media added and the plate immediately analyzed by microwell plate reader. Given the broad range of absorption and emission wavelengths, excitation varied from 355 nm to 500 nm with emission collected at +100 nm to +150 nm.
From this initial assay, it was possible to determine whether a compound associates with the cultured cells; however, it was not clear whether a particular compound was actively transported into cells or simply interacts with the cell membrane. The monoamine transporter (MAT) reuptake inhibitor, indatraline, was utilized to provide some insight into what mechanisms of cellular uptake are at play. Dissociated brain cells were pretreated with indatraline followed by each of the twelve emitters identified from the results shown in FIG. 5.

[7] = Optical spectroscopy (UV-vis and fluorescence) of the stilbazolium emitter library; format: physicochemical
Description: UV-vis spectroscopy was conducted to evaluate the absorption and emission spectra for each of the thirty-two emitters.

[8] = molecular target: T1, hDAT (Homo sapiens, UniProt Q01959); assay: Time-lapse confocal fluorescence microscopy of transporter-expressing HEK-293 cells (hDAT); format: cell-based; conditions: HEK-293 hDAT, 10 μM to 100 μM, images at 10 sec intervals
T1 construct: expressed in transfected cells
Text: (§1) HEK-293 cells stably expressing hDAT, hNET and hSERT were provided by Prof. R. Blakely (See, e.g., J. W. Schwartz, R. D. Blakely and L. J. DeFelice, J. Biol. Chem., 2003, 278, 9768.) and cultured on 35 mm dishes with a coverslip imaging window for confocal microscopy. […] Laser intensity and gain were not altered for subsequent images captured at 10 sec intervals. Representative images are shown in FIG. 7 together with intensity profiles captured from cell bodies.

[9] = system: live brainstem and cerebellum sections from e19 chicks; assay: Confocal imaging of live brain explant sections, with and without desipramine; parameters: species or system chick; conditions: for distribution in live brain sections: 405 nm excitation, cerebellum and brainstem
Text: This distribution is consistent with the behavior of these probes towards MAT-expressing HEK293 cells. The wider distribution of 13A may be due to binding to multiple transporter types, wh[…] may be limited to NET or DAT expressing catecholaminergic cells. […] Image overlays from 100 μm sagittal (FIG. 8A) and transverse (FIG. 8B) sections reveal that both probes are associated with cells of chick mesencephalon and metencephalon. The fluorophores were excited by laser at 405 nm. […] The scale bars for FIG. 8 are as follows: 8A & 8B=100 μm; C & D=10 μm; and E & F=50 μm).

[10] = molecular target: T2, hNET (Homo sapiens, UniProt P23975); assay: Time-lapse confocal fluorescence microscopy of transporter-expressing HEK-293 cells (hNET); format: cell-based; conditions: HEK-293 hNET, 10 μM to 100 μM, images at 10 sec intervals
T2 construct: expressed in transfected cells
Text: as §1

[11] = molecular target: T3, hSERT (Homo sapiens, UniProt P31645); assay: Time-lapse confocal fluorescence microscopy of transporter-expressing HEK-293 cells (hSERT); format: cell-based; conditions: HEK-293 hSERT, 10 μM to 100 μM, images at 10 sec intervals
T3 construct: expressed in transfected cells
Text: as §1

[12] = system: monoamine oxidases (MAOs); assay: Conversion of profluorescent HNETP to HNEP+ in cell culture; format: cell-based
Text: In addition, it has been discovered that reduction of HNEP+ (UM006) results in the formation of HNETP (UM007). This provides a profluorescent option for screening pharmaceutical targets in vivo, which allows for the assessment of bioavailability of compounds in model organisms. In particular, the long wavelength absorption and emission of HNEP+ are not present in HNETP due to the loss of conjugation and the cationic pyridinium functionality. […] This reflects two distinct processes: accumulation of HNETP in the cells and the metabolism of HNETP to HNEP+ by MAOs. Inhibitors of MAO are important for several diseases including Parkinsons Disease as well as hypertensive disorders.

T3 sequence (P31645 whole entry): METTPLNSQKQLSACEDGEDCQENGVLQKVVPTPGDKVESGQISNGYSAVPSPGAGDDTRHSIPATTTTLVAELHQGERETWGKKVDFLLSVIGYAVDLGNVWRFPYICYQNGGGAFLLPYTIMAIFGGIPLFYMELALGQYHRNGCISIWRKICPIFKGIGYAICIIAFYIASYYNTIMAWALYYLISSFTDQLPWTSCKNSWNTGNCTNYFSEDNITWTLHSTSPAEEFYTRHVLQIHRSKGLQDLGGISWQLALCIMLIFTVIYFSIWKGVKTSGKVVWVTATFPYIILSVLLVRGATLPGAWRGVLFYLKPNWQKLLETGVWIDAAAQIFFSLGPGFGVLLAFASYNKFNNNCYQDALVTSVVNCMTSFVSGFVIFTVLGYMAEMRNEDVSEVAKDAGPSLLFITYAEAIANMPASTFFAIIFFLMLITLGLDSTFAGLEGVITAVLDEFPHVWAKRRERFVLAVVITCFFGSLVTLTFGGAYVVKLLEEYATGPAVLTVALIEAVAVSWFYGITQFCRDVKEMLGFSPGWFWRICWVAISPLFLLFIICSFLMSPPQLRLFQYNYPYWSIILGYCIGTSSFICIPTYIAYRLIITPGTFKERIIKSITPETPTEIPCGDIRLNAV
T2 sequence (P23975 whole entry): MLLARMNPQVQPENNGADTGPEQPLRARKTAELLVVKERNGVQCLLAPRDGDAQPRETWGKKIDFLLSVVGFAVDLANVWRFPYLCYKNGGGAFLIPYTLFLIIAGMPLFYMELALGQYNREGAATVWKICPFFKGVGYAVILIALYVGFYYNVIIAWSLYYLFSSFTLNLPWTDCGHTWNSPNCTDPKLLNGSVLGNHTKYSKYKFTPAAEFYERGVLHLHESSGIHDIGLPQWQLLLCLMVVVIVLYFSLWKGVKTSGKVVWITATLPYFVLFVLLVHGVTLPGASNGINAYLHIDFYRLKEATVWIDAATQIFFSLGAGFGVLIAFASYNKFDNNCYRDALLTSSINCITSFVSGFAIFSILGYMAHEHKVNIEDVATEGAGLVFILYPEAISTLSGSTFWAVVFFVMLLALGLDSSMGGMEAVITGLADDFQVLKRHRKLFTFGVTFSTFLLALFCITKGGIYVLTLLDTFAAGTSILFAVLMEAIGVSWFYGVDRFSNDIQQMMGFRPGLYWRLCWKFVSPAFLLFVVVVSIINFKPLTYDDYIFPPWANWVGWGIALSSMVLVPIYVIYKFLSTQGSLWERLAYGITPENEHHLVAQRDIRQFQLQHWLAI
T1 sequence (Q01959 whole entry): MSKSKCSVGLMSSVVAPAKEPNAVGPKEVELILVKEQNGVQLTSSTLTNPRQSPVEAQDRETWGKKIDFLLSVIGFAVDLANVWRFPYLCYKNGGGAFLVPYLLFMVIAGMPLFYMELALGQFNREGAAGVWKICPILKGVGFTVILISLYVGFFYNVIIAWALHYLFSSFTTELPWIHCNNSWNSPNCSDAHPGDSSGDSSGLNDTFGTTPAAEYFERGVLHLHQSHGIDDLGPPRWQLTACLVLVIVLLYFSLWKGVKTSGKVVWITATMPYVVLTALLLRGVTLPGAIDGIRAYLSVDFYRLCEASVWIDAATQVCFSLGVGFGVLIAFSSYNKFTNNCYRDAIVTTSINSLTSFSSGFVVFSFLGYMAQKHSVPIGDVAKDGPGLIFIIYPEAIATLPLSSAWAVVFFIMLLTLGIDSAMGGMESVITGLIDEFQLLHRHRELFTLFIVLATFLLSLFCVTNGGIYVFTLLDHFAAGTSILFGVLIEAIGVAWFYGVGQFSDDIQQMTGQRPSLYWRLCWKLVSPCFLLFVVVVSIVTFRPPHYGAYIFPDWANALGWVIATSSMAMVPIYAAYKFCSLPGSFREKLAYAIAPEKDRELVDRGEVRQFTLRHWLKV

SMILES: NCCn1c(=O)cc(C(F)(F)F)c2ccc(O)cc21 [Compound 1]
effect of Clomipramine pretreatment on uptake [1]: significantly reduced
emission response (cellular uptake) [1]: high emission response
cell binding / illumination ([2]; one minute exposure, 405 nm excitation): bound to and illuminated most healthy cells
photostability during imaging ([2]; without antifade reagents): sufficiently stable to capture multiple images over 10 mins
subcellular localization of probe ([2]; z-stacks, one minute exposure): localized internally after only one minute of exposure; also recorded: localized to the interior of both astroglia and neurons

SMILES: CN(C)CCn1c(=O)cc(C(F)(F)F)c2ccc(O)cc21 [Compound 2]
emission response (cellular uptake) [1]: did not differ significantly from the controls

small additional emission peak [3]: 380 nm
SMILES: O=c1cc(C(F)(F)F)c2ccc(O)cc2n1CCO [Compound 3]
emission response (cellular uptake) [1]: did not differ significantly from the controls

small additional emission peak [3]: 380 nm
solubility [4]: < 50 µM
SMILES: O=c1cc(C(F)(F)F)c2ccc(O)cc2n1CCCc1ccccc1 [Compound 4]
effect of Clomipramine pretreatment on uptake [1]: significantly reduced
emission response (cellular uptake) [1]: to a lesser extent

λmax,abs ([3]; 5HT comparison): 277 nm
SMILES: NCCc1c[nH]c2ccc(O)cc12 [Compound 5HT, 5-hydroxytryptamine, reference compound]

SMILES: CN(C)CCn1c(=O)cc(C(F)(F)F)c2ccc(O)cc21 [Compound 8]
uptake in dissociated chick brain cells [5]: little or no uptake

SMILES: CN(C)CCN1C(=O)c2cccc3c(N)ccc(c23)C1=O [Compound 9]
uptake in dissociated chick brain cells [5]: little or no uptake

absorption maxima ([7]; 10 μM solutions): 358 nm
emission maxima ([7]; 10 μM solutions): 475 nm and 490 nm
SMILES: COc1ccc(/C=C/c2cc[n+](C)cc2)cc1 [Compound 12A]
emission response after indatraline pretreatment [6]: maintained high responses even after indatraline pretreatment
uptake in dissociated chick brain cells [5]: accumulated

SMILES: C[n+]1ccc(/C=C/c2ccc3ccccc3c2)cc1.[I-] [Compound 13A, (E)-1-Methyl-4-[2-(2-naphthalenyl)ethenyl]-pyridinium iodide]
emission response after indatraline pretreatment [6]: affected by indatraline pretreatment
accumulation / transport in cells expressing DAT [8]: did not accumulate; also recorded: does not appear to be transported
distribution in live brain sections [9]: widely distributed in both the cerebellum and pons
overall brightness (ε·Φem) ([7]; versus acridine orange, Hoescht 33258 and DAPI): compares favorably
accumulation / transport in cells expressing NET [10]: did not accumulate; also recorded: does not appear to be transported
accumulation / transport in cells expressing SERT [11]: did not accumulate; also recorded: does not appear to be transported

SMILES: C[n+]1ccc(/C=C/c2ccc3cc(O)ccc3c2)cc1 [Compound 14A, (E)-4-[2-(6-hydroxy-2-naphthalenyl)ethenyl]-1-methyl-pyridinium iodide]
distribution in live brain sections [9]: appears in distinct cell groupings along the cerebellar gyri and around the midline of the brainstem
effect of desipramine pretreatment on accumulation ([9]; pretreatment with desipramine, a norepinephrine reuptake inhibitor): limited the accumulation
accumulation / transport in cells expressing NET [10]: preferentially accumulates in cells expressing NET; also recorded: rapidly accumulated
accumulation / transport in cells expressing SERT [11]: does not differ substantially from the control untransfected HEK cells

SMILES: CN1CC=C(/C=C/c2ccc3cc(O)ccc3c2)CC1 [HNETP]
metabolic conversion by MAOs [12]: convert HNETP to HNEP+ in cell culture
